Measured values from patent US9593305B2, “Differentiation of pluripotent stem cells” (Janssen Biotech, Inc., priority 2008, dated 2017).

Key:
[1] = test system: H1 human embryonic stem cells; assay: Analogue screening in combination with only GDF-8, SOX17 (Example 21, Tables 18 and 19); format: cell-based; design: Sox17 Expression: % of positive control / Cell Number: % of positive control: tested at 2.5 µM; settings: compound in combination with GDF8; for Cell Number: Average Total Cell Number / Sox17 Expression: Average Total Intensity: four assay plates; for Cell Number: % of positive control / Sox17 Expression: % of positive control: relative to Activin A/Wnt3a of the same plate
Description: Briefly, clusters of H1 human embryonic stem cells were grown on reduced growth factor Matrigel™ (Invitrogen; Cat #356231)-coated tissue culture plastic. Cells were passaged using collagenase (Invitrogen; Cat #17104-019) treatment and gentle scraping, washed to remove residual enzyme, and plated with even dispersal at a ratio of 1:1 (surface area) on reduced growth factor […]™ (BD Biosciences; Cat #356231)-coated 96-well black plates (Packard ViewPlates; PerkinElmer; Cat #6005182) using volumes of 100 μl/well. Cells were allowed to attach and then recover log phase growth over a 1 to 3 day time period, feeding daily with MEF conditioned medium supplemented with 8 ng/ml bFGF (R&D Systems; Cat #233-FB). Plates were maintained at 37° C., 5% CO2 in a humidified box throughout the duration of assay.
Screening was conducted using a library of the analogue compounds. Compounds from this library were made available as 5 mM stocks in 96-well plate format, solubilized in 100% DMSO (Sigma; Cat #D2650) and stored at −80° C. The library compounds were further diluted to an intermediate concentration of 0.2 mM in 50 mM HEPES (Invitrogen; Cat #15630-080), 20% DMSO and stored at 4° C. Test conditions were performed in triplicate, feeding on alternating days over a four-day assay period. Assays were initiated by aspirating culture medium from each well followed by three washes in PBS (Invitrogen; Cat #14190) to remove residual growth factors. On the first day of assay, test volumes of 200 μl per well were added to each well using DMEM:F12 base medium (Invitrogen; Cat #11330-032) supplemented with 0.5% FCS (HyClone; Cat #SH30070.03) and 200 ng/ml GDF-8 (R&D Systems, Cat #788-G8) plus 2.5 μM compound. On the third day of assay, test volumes of 100 μl per well were added to each well using DMEM:F12 base medium supplemented with 2% FCS plus 200 ng/ml GDF-8 (R&D Systems, Cat #788-G8). Positive control samples contained the same base medium supplemented with FCS and 1000 ng/ml recombinant human activin A (PeproTech; Cat #120-14) throughout the four-day assay along with Wnt3a (20 ng/ml) on days 1 and 2. Negative control samples contained DMEM:F12 base medium supplemented with FCS, adding Wnt3a on days 1 and 2 but omitting treatment with activin A.
At the conclusion of four-days of culture, assay plates were washed twice with PBS (Invitrogen; Cat #14190), fixed with 4% paraformaldehyde (Alexis Biochemical; Cat #ALX-350-011) at room temperature for 20 minutes, then washed three times with PBS and permeabilized with 0.5% Triton X-100 (Sigma; Cat #T8760-2) for 20 minutes at room temperature. Cells were washed again three times with PBS and blocked with 4% chicken serum (Invitrogen; Cat #16110082) in PBS for 30 minutes at room temperature. Primary antibody (goat anti-human SOX17; R&D Systems; Cat #AF1924) was diluted 1:100 in 4% chicken serum and added to each well for one hour at room temperature. Alexa Fluor 488 conjugated secondary antibody (chicken anti-goat IgG; Molecular Probes; Cat #AZ1467) was diluted 1:200 in PBS and added to each sample well after washing three times with PBS. To counterstain nuclei, 4 μg/ml Hoechst 33342 (Invitrogen; Cat #H3570) was added for ten minutes at room temperature. Plates were washed once with PBS and left in 100 μl/well PBS for imaging.
Imaging was performed using an IN Cell Analyzer 1000 (GE Healthcare) utilizing the 51008bs dichroic for cells stained with Hoechst 33342 and Alexa Fluor 488. Exposure times were optimized from positive control wells and from untreated negative control wells stained with secondary antibody alone. Images from 15 fields per well were acquired to compensate for any cell loss during the bioassay and subsequent staining procedures. Measurements for total cell number and total SOX17 intensity were obtained from each well using IN Cell Developer Toolbox 1.7 (GE Healthcare) software. […]

[2] = test system: H1 human embryonic stem cells; assay: Analog screening with GDF-8 and growth factor/agonist pool (Example 8, Tables 7 and 8); format: cell-based
Description: Briefly, clusters of H1 human embryonic stem cells were grown on reduced growth factor […]™ (Invitrogen; Cat #356231)-coated tissue culture plastic. Cells were passaged using collagenase (Invitrogen; Cat #17104-019) treatment and gentle scraping, washed to remove residual enzyme, and plated with even dispersal at a ratio of 1:1 (surface area) on reduced growth factor […]™-coated 96-well black plates (Packard ViewPlates; PerkinElmer; Cat #6005182) using volumes of 100 μl/well. Cells were allowed to attach as clusters and then recover log phase growth over a 1 to 3 day period, feeding daily with MEF conditioned medium supplemented with 8 ng/ml bFGF (R&D Systems; Cat #233-FB). Plates were maintained at 37° C., 5% CO2 in a humidified box throughout the duration of assay. Growth factors purchased from R&D Systems were EGF (Cat #236-EG), FGF4 (Cat #235-F4), PDGF-A (Cat #221-AA), PDGF-D (Cat #1159-SB), PDGF-A/B (Cat #222-AB). […] Screening was conducted using a library of compounds that were made available as 5 mM stocks in 96-well plate format, solubilized in 100% DMSO (Sigma; Cat #D2650) and stored at −80° C. The compounds were further diluted to an intermediate concentration of 0.2 mM in 50 mM HEPES (Invitrogen; Cat #15630-080), 20% DMSO and stored at 4° C. Test conditions were performed in single wells, feeding on alternate days over a four-day assay period. Primary screening assays were initiated by aspirating culture medium from each well followed by three washes in PBS (Invitrogen; Cat #14190) to remove residual growth factors and serum. On the first day of assay, test volumes of 200 μl per well were added back containing DMEM:F12 base medium (Invitrogen; Cat #11330-032) supplemented with 0.5% FCS (HyClone; […] Cat #1324-WN) plus 2.5 μM compound. All remaining growth factors were tested at a final assay concentration of 50 ng/ml (EGF, FGF4, PDGF-A, PDGF-A/B, VEGF) with the exception of GDF-8 tested at 25 ng/ml. […] Cat #120-14). […] All remaining growth factors were tested at a final assay concentration of 50 ng/ml (EGF, FGF4, PDGF-A, PDGF-A/B, VEGF) with the exception of GDF-8 tested at 25 ng/ml. […] Cat #120-14). Negative control samples contained DMEM:F12 base medium supplemented with 2% FCS. […] At the conclusion of four-days of culture, assay plates were washed twice with PBS (Invitrogen; Cat #14190), fixed with 4% paraformaldehyde (Alexis Biochemical; Cat #ALX-350-011) at room temperature for 20 minutes, then washed three times with PBS and permeabilized with 0.5% Triton X-100 (Sigma; Cat #T8760-2) for 20 minutes at room temperature. Cells were washed again three times with PBS and blocked with 4% chicken serum (Invitrogen; Cat #16110082) in PBS for 30 minutes at room temperature. Primary antibody (goat anti-human SOX17; R&D Systems; Cat #AF1924) was diluted 1:100 in 4% chicken serum and added to each well for one hour at room temperature. Alexa Fluor 488 conjugated secondary antibody (chicken anti-goat IgG; Molecular Probes; Cat #AZ1467) was diluted 1:200 in PBS and added to each sample well after washing three times with PBS. To counterstain nuclei, 4 μg/ml Hoechst 33342 (Invitrogen; Cat #H3570) was added for ten minutes at room temperature. Plates were washed once with PBS and left in 100 μl/well PBS for imaging. Imaging was performed using an IN Cell Analyzer 1000 (GE Healthcare) utilizing the 51008bs dichroic for cells stained with Hoechst 33342 and Alexa Fluor 488. Exposure times were optimized from positive control wells and from untreated negative control wells stained with secondary antibody alone. Images from 15 fields per well were acquired to compensate for any cell loss during the bioassay and subsequent staining procedures. […] Segmentation for the nuclei was determined based on gray-scale levels (baseline range 100-300) and nuclear size. Averages and standard deviations were calculated for each replicate data set. […]

[3] = Plate 1, compound + EGF, FGF, PDGF-A, VEGF, PDGF-D, muscimol, GDF8
[4] = Plate 1, compound + EGF, FGF, PDGF-A, VEGF, PDGF-D, muscimol, GDF8, positive control Activin A/Wnt3a
[5] = Table 8: hits with greater than 25% activity of the positive control, with GDF-8 and growth factors/agonists

SMILES | Cell Number: Average Total Cell Number [1] | Sox17 Expression: Average Total Intensity [1] | Cell Number: % of positive control [1] [%] | Sox17 Expression: % of positive control [1] [%] | Cell Number, Average Total Cell Number [2, 3] | Sox17 Expression, Average Total Intensity [2, 3] | Cell Number, % of positive control [2, 4] | Sox17 Expression, % of positive control [2, 4] | Cell Number, % of positive control [2, 5] | Sox17 Expression, % of positive control [2, 5] | Sox17 Expression, Average Total Intensity [2, 5]
O=C1NCCCc2cc(ccc2F)-c2ncnc(n2)Nc2cc(Cl)cc(c2)CN2CCCC1C2 (stereo not drawn) [Compound 26, 10-Chloro-25-fluoro-3,5,7,14,20,31-hexaazapentacyclo[22.3.1.1˜2,6˜0.1˜8,12˜0.1˜14,18˜]hentriaconta-1(28), 2(31), 3,5,8(30), 9,11,24,26-nonaen-19-one] | 4896 | 1.65E+07 | 32.6 | 4.8 | 7415 | 8.30E+07 | 55.4 % of positive control | 33.1 % of positive control | 55.4 % of positive control | 33.1 % of positive control | 8.30E+07
CC(C)(C)OC(=O)NCCc1ccc(Nc2nnc(-c3cccc(CCCO)c3)[nH]2)cc1 [Compound 51, 1,1-Dimethylethyl {2-[4-({5-[3-(3-hydroxypropyl)phenyl]-4H-1,2,4-triazol-3-yl}amino)phenyl]ethyl}carbamate] | 4289 | 1.70E+07 | 28.6 | 4.9 | – | – | – | – | – | – | –
O=C(O)CCc1cccc(Nc2ncnc(-c3cccnc3)n2)c1 [Compound 1, 3-{3-[(4-Pyridin-3-yl-1,3,5-triazin-2-yl)amino]phenyl}propanoic acid] | 3213 | 6.48E+06 | 21.0 | 1.9 | – | – | – | – | – | – | –
COc1ccc(CCCO)cc1-c1cnc(Nc2cccc(CNC(=O)OC(C)(C)C)c2)o1 [Compound 52, 1,1-Dimethylethyl {[3-({5-[5-(3-hydroxypropyl)-2-(methyloxy)phenyl]-1,3-oxazol-2-yl}amino)phenyl]methyl}carbamate] | 4932 | 1.99E+07 | 32.9 | 5.8 | – | – | – | – | – | – | –
COc1ccc(-c2ccnc(Nc3cc(Br)cc(CO)c3)n2)cc1CN(C)CCCNC(=O)OC(C)(C)C [Compound 5, 1,1-Dimethylethyl {3-[{[5-(2-{[3-bromo-5-(hydroxymethyl)phenyl]amino}pyrimidin-4-yl)-2-(methyloxy)phenyl]methyl}(methyl)amino]propyl}carbamate] | 3137 | 1.30E+07 | 20.5 | 3.9 | – | – | – | – | – | – | –
OCCc1cccc(Nc2ncnc(-c3cccnc3)n2)c1 [Compound 2, 2-{3-[(4-Pyridin-3-yl-1,3,5-triazin-2-yl)amino]phenyl}ethanol] | 4538 | 2.95E+07 | 30.2 | 8.6 | – | – | – | – | – | – | –
CN1CCN(S(=O)(=O)c2ccc(Nc3cncc(-c4ccc(CN5CCC(O)CC5)s4)n3)cc2)CC1 [Compound 53, 1-({5-[6-({4-[(4-Methylpiperazin-1-yl)sulfonyl]phenyl}amino)pyrazin-2-yl]thiophen-2-yl}methyl)piperidin-4-ol] | 2783 | 6.36E+06 | 18.2 | 1.9 | – | – | – | – | – | – | –
CN1CCC(C(=O)NCc2sc(Nc3cccc(C(F)(F)F)c3)nc2-c2cccnc2)CC1 [Compound 50, 1-Methyl-N-[(4-pyridin-3-yl-2-{[3-(trifluoromethyl)phenyl]amino}-1,3-thiazol-5-yl)methyl]piperidine-4-carboxamide] | 2666 | 1.48E+07 | 19.1 | 4.8 | – | – | – | – | – | – | –
